Values joined by “and” are separate entries in the source; they are usually repeats but may differ in a detail not shown here. Identical values can stand only once. Toxic doses and inconclusive results are not listed. Non-standard residues stand in square brackets, D forms with d. Residues, ends and D or L forms follow the SMILES beside them. ξ: configuration not given here. *: point of attachment. Boc = CC(C)(C)OC(=O)*; ξP = O=C(O)C1CCCN1
Tested on: BDF1 mice, P388 leukemia ip, median survival T/C
Experiment: NCI In Vivo Anticancer Drug Screen. Data for tumor model P388 Leukemia (intraperitoneal) in B6D2F1 (BDF1) mice
Conditions: endpoint: median survival time, higher = longer survival
Outline: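 Antitumour effect was judged in vivo: survival in drug-treated mice, normalised to that of vehicle-dosed controls, gives the reported T/C.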

[1] = dose: 100.0 mg/kg/injection, schedule: Q01DX009 (ip), vehicle: saline with Tween-80
[2] = dose: 50.0 mg/kg/injection, schedule: Q04DX003 (ip), vehicle: Klucel (hydroxypropylcellulose) (HPC)
[3] = dose: 50.0 mg/kg/injection, schedule: Q04DX002 (ip), vehicle: saline with Tween-80

NCC(O)COc1ccccc1N (stereo not given)
T/C (dose: 3.0 mg/kg/injection, schedule: Q01DX009 (ip), vehicle: saline): 100 % of control
T/C (dose: 3.0 mg/kg/injection, schedule: Q04DX003 (ip), vehicle: saline): 108 % of control and 109 % of control
T/C (dose: 6.0 mg/kg/injection, schedule: Q01DX009 (ip), vehicle: saline): 100 % of control
T/C (dose: 6.0 mg/kg/injection, schedule: Q04DX003 (ip), vehicle: saline): 95 % of control and 109 % of control
T/C (dose: 12.0 mg/kg/injection, schedule: Q01DX009 (ip), vehicle: saline): 96 % of control
T/C (dose: 12.0 mg/kg/injection, schedule: Q04DX003 (ip), vehicle: saline): 100 % of control and 113 % of control

CSc1nc(N)nc2nc[nH]c12
T/C (dose: 50.0 mg/kg/injection, schedule: Q01DX009 (ip), vehicle: saline with Tween-80): 109 % of control
T/C [1]: 104 % of control

CC12CCC(=O)C=C1CCC1C2CCC2(C)C(OP(=O)(N3CC3)N3CC3)CCC12 (stereo not given)
T/C (dose: 100.0 mg/kg/injection, schedule: Q04DX003 (ip), vehicle: saline with Tween-80): 110 % of control

CC(C)(C)OC(=O)NCC(=O)N1CCCC1C(=O)O (stereo not drawn) (Boc-Gly-[ξP]-OH)
T/C (dose: 50.0 mg/kg/injection, schedule: Q01DX005 (ip), vehicle: saline): 92 % of control
T/C (dose: 100.0 mg/kg/injection, schedule: Q01DX005 (ip), vehicle: saline): 90 % of control
T/C (dose: 200.0 mg/kg/injection, schedule: Q01DX005 (ip), vehicle: saline): 100 % of control

COc1cc(C=Nc2ccc(C(=O)O)c(O)c2)ccc1N(CCCl)CCCl
T/C (dose: 3.6 mg/kg/injection, schedule: Q01DX009 (ip), vehicle: Klucel (hydroxypropylcellulose) (HPC)): 196 % of control
T/C (dose: 5.4 mg/kg/injection, schedule: Q01DX009 (ip), vehicle: Klucel (hydroxypropylcellulose) (HPC)): 94 % of control
T/C (dose: 8.2 mg/kg/injection, schedule: Q01DX009 (ip), vehicle: Klucel (hydroxypropylcellulose) (HPC)): 245 % of control
T/C (dose: 8.3 mg/kg/injection, schedule: Q01DX009 (ip), vehicle: Klucel (hydroxypropylcellulose) (HPC)): 184 % of control
T/C (dose: 12.5 mg/kg/injection, schedule: Q01DX009 (ip), vehicle: Klucel (hydroxypropylcellulose) (HPC)): 230 % of control and 272 % of control and 213 % of control
T/C (dose: 12.5 mg/kg/injection, schedule: Q04DX003 (ip), vehicle: Klucel (hydroxypropylcellulose) (HPC)): 115 % of control
T/C (dose: 18.75 mg/kg/injection, schedule: Q01DX009 (ip), vehicle: Klucel (hydroxypropylcellulose) (HPC)): 96 % of control
T/C (dose: 25.0 mg/kg/injection, schedule: Q04DX003 (ip), vehicle: Klucel (hydroxypropylcellulose) (HPC)): 115 % of control
T/C [2]: 100 % of control

OCCC[P+](c1ccccc1)(c1ccccc1)c1ccccc1
T/C [2]: 113 % of control
T/C (dose: 100.0 mg/kg/injection, schedule: Q04DX003 (ip), vehicle: Klucel (hydroxypropylcellulose) (HPC)): 109 % of control

CCCCCCCCCCCCCC(=O)O[C@@H]1[C@@H](C)[C@@]2(O)[C@@H](C=C(CO)C[C@]3(O)C(=O)C(C)=C[C@@H]23)[C@@H]2C(C)(C)[C@]12OC(C)=O
T/C (dose: 0.03 mg/kg/injection, schedule: Q01DX009 (ip), vehicle: Klucel (hydroxypropylcellulose) (HPC)): 110 % of control
T/C (dose: 0.03 mg/kg/injection, schedule: Q01DX009 (ip), vehicle: saline + alcohol): 108 % of control
T/C (dose: 0.06 mg/kg/injection, schedule: Q01DX009 (ip), vehicle: Klucel (hydroxypropylcellulose) (HPC)): 100 % of control
T/C (dose: 0.06 mg/kg/injection, schedule: Q01DX009 (ip), vehicle: saline + alcohol): 110 % of control
T/C (dose: 0.12 mg/kg/injection, schedule: Q01DX009 (ip), vehicle: Klucel (hydroxypropylcellulose) (HPC)): 110 % of control
T/C (dose: 0.12 mg/kg/injection, schedule: Q01DX009 (ip), vehicle: saline + alcohol): 117 % of control
T/C (dose: 0.25 mg/kg/injection, schedule: Q01DX009 (ip), vehicle: Klucel (hydroxypropylcellulose) (HPC)): 92 % of control
T/C (dose: 0.25 mg/kg/injection, schedule: Q01DX009 (ip), vehicle: saline + alcohol): 116 % of control
T/C (dose: 0.5 mg/kg/injection, schedule: Q01DX009 (ip), vehicle: Klucel (hydroxypropylcellulose) (HPC)): 100 % of control
T/C (dose: 0.5 mg/kg/injection, schedule: Q01DX009 (ip), vehicle: saline + alcohol): 104 % of control
T/C (dose: 1.0 mg/kg/injection, schedule: Q01DX009 (ip), vehicle: Klucel (hydroxypropylcellulose) (HPC)): 108 % of control
T/C (dose: 3.1 micrograms/kg/injection, schedule: Q01DX009 (ip), vehicle: gum acacia): 97 % of control and 108 % of control
T/C (dose: 3.1 micrograms/kg/injection, schedule: Q01DX009 (ip), vehicle: saline with Tween-80): 105 % of control
T/C (dose: 6.2 micrograms/kg/injection, schedule: Q01DX009 (ip), vehicle: gum acacia): 94 % of control
T/C (dose: 6.2 micrograms/kg/injection, schedule: Q01DX009 (ip), vehicle: saline with Tween-80): 109 % of control
T/C (dose: 12.5 micrograms/kg/injection, schedule: Q01DX009 (ip), vehicle: gum acacia): 106 % of control
T/C (dose: 12.5 micrograms/kg/injection, schedule: Q01DX009 (ip), vehicle: saline with Tween-80): 104 % of control
T/C (dose: 25.0 micrograms/kg/injection, schedule: Q01DX009 (ip), vehicle: gum acacia): 103 % of control and 118 % of control
T/C (dose: 25.0 micrograms/kg/injection, schedule: Q01DX009 (ip), vehicle: saline with Tween-80): 109 % of control
T/C (dose: 50.0 micrograms/kg/injection, schedule: Q01DX009 (ip), vehicle: gum acacia): 97 % of control and 108 % of control and 116 % of control
T/C (dose: 50.0 micrograms/kg/injection, schedule: Q01DX009 (ip), vehicle: saline with Tween-80): 114 % of control
T/C (dose: 100.0 micrograms/kg/injection, schedule: Q01DX009 (ip), vehicle: gum acacia): 106 % of control and 108 % of control
T/C (dose: 100.0 micrograms/kg/injection, schedule: Q01DX009 (ip), vehicle: saline with Tween-80): 113 % of control
T/C (dose: 200.0 micrograms/kg/injection, schedule: Q01DX009 (ip), vehicle: gum acacia): 101 % of control and 103 % of control and 113 % of control
T/C (dose: 200.0 micrograms/kg/injection, schedule: Q01DX009 (ip), vehicle: saline with Tween-80): 97 % of control
T/C (dose: 400.0 micrograms/kg/injection, schedule: Q01DX009 (ip), vehicle: gum acacia): 103 % of control
T/C (dose: 400.0 micrograms/kg/injection, schedule: Q01DX009 (ip), vehicle: saline with Tween-80): 103 % of control
T/C (dose: 800.0 micrograms/kg/injection, schedule: Q01DX009 (ip), vehicle: gum acacia): 100 % of control and 106 % of control

CCCCNC(C)(C)C(SS)c1ccc(C(F)(F)F)cc1 (stereo not given)
T/C (dose: 6.25 mg/kg/injection, schedule: Q04DX003 (ip), vehicle: other): 100 % of control
T/C (dose: 12.5 mg/kg/injection, schedule: Q04DX003 (ip), vehicle: other): 105 % of control
T/C (dose: 25.0 mg/kg/injection, schedule: Q04DX003 (ip), vehicle: other): 110 % of control

C1=CC(=P(c2ccccc2)(c2ccccc2)c2ccccc2)C=C1
T/C (dose: 50.0 mg/kg/injection, schedule: Q01DX010 (ip), vehicle: saline): 100 % of control
T/C (dose: 100.0 mg/kg/injection, schedule: Q01DX010 (ip), vehicle: saline): 100 % of control
T/C (dose: 200.0 mg/kg/injection, schedule: Q01DX010 (ip), vehicle: saline): 100 % of control
T/C (dose: 400.0 mg/kg/injection, schedule: Q01DX010 (ip), vehicle: saline): 100 % of control

CC(C)(C)c1cccc(C(C)(C)C)c1OC(=O)NS(=O)(=O)c1ccccc1
T/C (dose: 12.5 mg/kg/injection, schedule: Q04DX003 (ip), vehicle: saline): 111 % of control
T/C (dose: 25.0 mg/kg/injection, schedule: Q04DX003 (ip), vehicle: saline): 105 % of control
T/C (dose: 50.0 mg/kg/injection, schedule: Q04DX003 (ip), vehicle: saline): 100 % of control
T/C (dose: 75.0 mg/kg/injection, schedule: Q04DX003 (ip), vehicle: Klucel (hydroxypropylcellulose) (HPC)): 104 % of control
T/C (dose: 115.0 mg/kg/injection, schedule: Q04DX003 (ip), vehicle: Klucel (hydroxypropylcellulose) (HPC)): 104 % of control

CC1CCC[N-]C1.CC1CCC[N-]C1.CC1CCC[N-]C1.CC1CCC[N-]C1.[Cl][Rh][Cl] (stereo not given)
T/C (dose: 3.0 mg/kg/injection, schedule: Q01DX009 (ip), vehicle: Klucel (hydroxypropylcellulose) (HPC)): 162 % of control

O=c1c(Br)cccc(CN2CCOCC2)c1O
T/C (dose: 12.5 mg/kg/injection, schedule: Q04DX002 (ip), vehicle: saline with Tween-80): 101 % of control
T/C (dose: 25.0 mg/kg/injection, schedule: Q04DX002 (ip), vehicle: saline with Tween-80): 96 % of control
T/C [3]: 101 % of control and 106 % of control

COC(=O)C(Br)C(OC)c1ccccc1 (stereo not given)
T/C (dose: 100.0 mg/kg/injection, schedule: Q01DX009 (ip), vehicle: Klucel (hydroxypropylcellulose) (HPC)): 91 % of control
T/C (dose: 200.0 mg/kg/injection, schedule: Q01DX009 (ip), vehicle: Klucel (hydroxypropylcellulose) (HPC)): 95 % of control
T/C (dose: 400.0 mg/kg/injection, schedule: Q01DX009 (ip), vehicle: Klucel (hydroxypropylcellulose) (HPC)): 95 % of control

N#Cc1ccc(N)c(CSc2ccccc2)c1
T/C [3]: 93 % of control
T/C (dose: 100.0 mg/kg/injection, schedule: Q04DX002 (ip), vehicle: saline with Tween-80): 90 % of control
T/C (dose: 200.0 mg/kg/injection, schedule: Q04DX002 (ip), vehicle: saline with Tween-80): 99 % of control

C/C(Cc1ccccc1)=N\O
T/C [1]: 100 % of control
T/C (dose: 200.0 mg/kg/injection, schedule: Q01DX009 (ip), vehicle: saline with Tween-80): 110 % of control
